Laboratory results reported in patent US20250313562A1, “Substituted tricyclic ligands for FK506-binding proteins for treatment of diseases” (Technische Universität Darmstadt, priority 2024, published 2025).

Key:
[1] = target: T1, FKBP12 (Homo sapiens, UniProt P62942); test: nanoBRET assay, intracellular FKBP12 occupancy in HEK293T cells; type: cell-based; conditions: for IC50: intracellular occupancy
Procedure: (§1) For compounds 31 and 32 target engagement of FKBP12 and FKBP51 in the HEK293T cells was tested (Table 2).

[2] = target: T1, FKBP12; test: competitive fluorescence polarization assay, FKBP12; type: binding
Procedure: (§2) Affinity determination by competitive fluorescence polarization assay. The synthesized tricyclic sulfonamides were tested for their binding affinities to human FKBPs (FKBP12 and FKBP51) by the fluorescence polarization assay (Table 1).

[3] = target: T2, FKBP51 (Homo sapiens, UniProt Q13451); test: nanoBRET assay, intracellular FKBP51 occupancy in HEK293T cells; type: cell-based; conditions: for IC50: intracellular occupancy; for displacement of the tracer for FKBP51 (potency in words): nanoBRET
T2 sequence (Q13451 1-457): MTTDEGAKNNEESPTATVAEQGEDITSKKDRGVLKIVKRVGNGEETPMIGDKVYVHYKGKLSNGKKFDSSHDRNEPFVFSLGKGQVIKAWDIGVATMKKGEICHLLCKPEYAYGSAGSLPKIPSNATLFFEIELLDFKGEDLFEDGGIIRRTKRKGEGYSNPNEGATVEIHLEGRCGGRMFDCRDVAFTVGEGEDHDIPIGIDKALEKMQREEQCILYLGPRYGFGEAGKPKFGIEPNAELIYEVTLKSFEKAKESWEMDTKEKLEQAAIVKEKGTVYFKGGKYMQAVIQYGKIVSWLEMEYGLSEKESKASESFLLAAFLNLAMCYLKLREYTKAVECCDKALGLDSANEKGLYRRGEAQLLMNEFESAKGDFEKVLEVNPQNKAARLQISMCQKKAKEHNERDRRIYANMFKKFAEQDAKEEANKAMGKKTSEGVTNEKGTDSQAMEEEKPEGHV
Procedure: as §1

[4] = target: T2, FKBP51; test: competitive fluorescence polarization assay, FKBP51; type: binding
Procedure: as §2

T1 sequence (P62942 whole entry): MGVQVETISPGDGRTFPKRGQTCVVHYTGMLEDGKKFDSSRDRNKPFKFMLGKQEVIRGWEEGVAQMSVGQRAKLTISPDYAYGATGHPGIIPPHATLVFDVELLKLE

SMILES: CCNC(=O)[C@@H]1CC[C@H]2[C@H](CO)C3CCCC(C(=O)N12)N3S(=O)(=O)c1cc(Cl)cc(Cl)c1 (stereo in doubt) [Compound 31]
- IC50 [1]: 3.9 ± 0.3 nM
- Ki [2]: 0.013 ± 0.004 nM
- IC50 [3]: 8.5 ± 0.6 nM
- displacement of the tracer for FKBP51 (potency in words) [3]: low nanomolar potency
- Ki [4]: 0.76 ± 0.2 nM

SMILES: CC1CCN(C(=O)[C@@H]2CC[C@H]3[C@H](CO)C4CCCC(C(=O)N23)N4S(=O)(=O)c2cc(Cl)cc(Cl)c2)CC1 (stereo in doubt) [Compound 32]
- IC50 [1]: 0.49 ± 0.04 nM
- competition with the tracer for FKBP12 (potency in words) ([1]; nanoBRET): subnanomolar potency
- Ki [2]: 0.019 ± 0.007 nM
- IC50 [3]: 3.3 ± 0.3 nM
- displacement of the tracer for FKBP51 (potency in words) [3]: low nanomolar potency
- Ki [4]: 0.72 ± 0.2 nM

SMILES: C=C[C@@H]1C2CCCC(C(=O)N3[C@H](C(=O)O)CC[C@@H]13)N2S(=O)(=O)c1cc(Cl)cc(Cl)c1 (stereo partly drawn) [Compound 3]
- Ki [2]: 12 ± 1.7 nM
- Ki [4]: 698 ± 49 nM

SMILES: C=C[C@@H]1C2CCCC(C(=O)N3[C@H](C(=O)OC)CC[C@@H]13)N2S(=O)(=O)c1cc(Cl)cc(Cl)c1 (stereo partly drawn) [Compound 20]
- Ki [2]: 1 ± 0.1 nM
- Ki [4]: 76 ± 10 nM

SMILES: C=C[C@@H]1C2CCCC(C(=O)N3[C@H](C(N)=O)CC[C@@H]13)N2S(=O)(=O)c1cc(Cl)cc(Cl)c1 (stereo partly drawn) [Compound 21]
- Ki [2]: 0.48 ± 0.08 nM
- Ki [4]: 18 ± 3 nM

SMILES: C=C[C@@H]1C2CCCC(C(=O)N3[C@H](C(=O)NC)CC[C@@H]13)N2S(=O)(=O)c1cc(Cl)cc(Cl)c1 (stereo partly drawn) [Compound 22]
- Ki [2]: 0.32 ± 0.04 nM
- Ki [4]: 7.7 ± 0.9 nM

SMILES: C=C[C@@H]1C2CCCC(C(=O)N3[C@H](C(=O)N(C)C)CC[C@@H]13)N2S(=O)(=O)c1cc(Cl)cc(Cl)c1 (stereo partly drawn) [Compound 23]
- Ki [2]: 2.3 ± 0.2 nM
- Ki [4]: 121 ± 8 nM

SMILES: C=C[C@@H]1C2CCCC(C(=O)N3[C@H](C(=O)NCC)CC[C@@H]13)N2S(=O)(=O)c1cc(Cl)cc(Cl)c1 (stereo partly drawn) [Compound 24]
- Ki [2]: 0.043 ± 0.01 nM
- Ki [4]: 1.1 ± 0.4 nM

SMILES: C=C[C@@H]1C2CCCC(C(=O)N3[C@H](C(=O)N4CCC(C)CC4)CC[C@@H]13)N2S(=O)(=O)c1cc(Cl)cc(Cl)c1 (stereo partly drawn) [Compound 25]
- Ki [2]: 0.067 ± 0.01 nM
- Ki [4]: 0.93 ± 0.2 nM

SMILES: C=C[C@@H]1C2CCCC(C(=O)N3[C@H](C(=O)N4CCN(C)CC4)CC[C@@H]13)N2S(=O)(=O)c1cc(Cl)cc(Cl)c1 (stereo partly drawn) [Compound 26]
- Ki [2]: 0.16 ± 0.018 nM
- Ki [4]: 11 ± 0.7 nM

SMILES: C=C[C@@H]1C2CCCC(C(=O)N3[C@H](C(=O)N4C[C@@H]5C[C@H]4CN5C)CC[C@@H]13)N2S(=O)(=O)c1cc(Cl)cc(Cl)c1 [Compound 27]
- Ki [2]: 0.55 ± 0.07 nM
- Ki [4]: 17 ± 1.7 nM

SMILES: C=C[C@@H]1C2CCCC(C(=O)N3[C@H](C(=O)N4C[C@@H]5C[C@H]4CN5)CC[C@@H]13)N2S(=O)(=O)c1cc(Cl)cc(Cl)c1 [Compound 28]
- Ki [2]: 0.72 ± 0.1 nM
- Ki [4]: 52 ± 6 nM

SMILES: C=C[C@H]1[C@@H]2CC[C@@H](c3ccccn3)N2C(=O)C2CCC[C@@H]1N2S(=O)(=O)c1cc(Cl)cc(Cl)c1 [Compound 30]
- Ki [2]: 12 ± 1.6 nM
- Ki [4]: 464 ± 79 nM
